Measured values: patent publication US12617837B2, “Composition for use in treatment of allergic diseases” (UNIVERSITY OF TSUKUBA, priority 2019, dated 2026)

B1: rPAIL (protein, UniProt Q05097 2-122, looked up)
PA-I galactophilic lectin: AWKGEVLANNEAGQVTSIIYNPGDVITIVAAGWASYGPTQKWGPQGDREHPDQGLICHDAFCGALVMKIGNSGTIPVNTGLFRWVAPNNVQGAITLIYNDVPGTYGNNSGSFSVNIGKDQS
B2: PNA (protein, UniProt P02872 24-273, looked up)
Galactose-binding lectin: AETVSFNFNSFSEGNPAINFQGDVTVLSNGNIQLTNLNKVNSVGRVLYAMPVRIWSSATGNVASFLTSFSFEMKDIKDYDPADGIIFFIAPEDTQIPAGSIGGGTLGVSDTKGAGHFVGVEFDTYSNSEYNDPPTDHVGIDVNSVDSVKTVPWNSVSGAVVKVTVIYDSSTKTLSVAVTNDNGDITTIAQVVDLKAKLPERVKFGFSASGSLGGRQIHLIRSWSFTSTLITTTRRSIDNNEKKIMNMASA
B3: AAL (protein, UniProt P18891 2-313, looked up)
Fucose-specific lectin: PTEFLYTSKIAAISWAATGGRQQRVYFQDLNGKIREAQRGGDNPWTGGSSQNVIGEAKLFSPLAAVTWKSAQGIQIRVYCVNKDNILSEFVYDGSKWITGQLGSVGVKVGSNSKLAALQWGGSESAPPNIRVYYQKSNGSGSSIHEYVWSGKWTAGASFGSTVPGTGIGATAIGPGRLRIYYQATDNKIREHCWDSNSWYVGGFSASASAGVSIAAISWGSTPNIRVYWQKGREELYEAAYGGSWNTPGQIKDASRPTPSLPDTFIAANSSGNIDISVFFQASGVSLQQWQWISGKGWSIGAVVPTGTPAGW

Assays:
Type in all cases: binding
human IgG1 = assay: Glycan microarray probed with human IgG1 (control of Table 7)
[1] = test system: lectins (96 lectins of Table 2); assay: Lectin microarray analysis of Clec10a ligand in HDM (Table 6); conditions: for Signal value, Target: Target: Pull-down assay sample from HDM using Clec10a-Fc (Clec10a ligand), signal at each lectin spot of the lectin microarray
Protocol: Lectin microarrays were made using a non-contact microarray printing robot (MicroSys4000; Genomic Solutions) according to the previous method. Samples were fluorescently labeled with Cy3 Mono-Reactive dye (Ge) and excess Cy3 was removed using a Sephadex g-25 desalting column (Ge). After 10 fold dilution with a probe solution (25 mM Tris-HCl, pH 7.5, 140 mM NaCl) (TBS) containing 2.7 mM KCl, 1 mM CaCl2, 1 mM MnCl2, and 1% Triton X-100, a Cy3-labeled sample was applied to a lectin microarray and incubated at 20° C. overnight. The sample was washed with a probe solution, and a fluorescence image was obtained using an evanescent-field activated fluorescence scanner (Bio-Rad scan 200, Rexxam Co. Ltd.). Lectin signals in triplicate spots were averaged for each protein sample and normalized to an average value of 96 lectins.

Clec10a-Fc = target: T1, Clec10a-Fc (Mus musculus, UniProt P49300); assay: Sugar conjugate (glycan) microarray analysis of Clec10a-Fc (Table 7); conditions: for Signal value, Clec10a-Fc: glycan microarray probed with Clec10a-Fc; for Signal value, Clec10a-Fc with EDTA: glycan microarray probed with Clec10a-Fc with EDTA
T1 construct: cloning the extracellular region of mouse Clec10a into a pME18S expression vector; made in house; host or cells: HEK293T cells
T1 sequence (P49300 57-304 limits assumed): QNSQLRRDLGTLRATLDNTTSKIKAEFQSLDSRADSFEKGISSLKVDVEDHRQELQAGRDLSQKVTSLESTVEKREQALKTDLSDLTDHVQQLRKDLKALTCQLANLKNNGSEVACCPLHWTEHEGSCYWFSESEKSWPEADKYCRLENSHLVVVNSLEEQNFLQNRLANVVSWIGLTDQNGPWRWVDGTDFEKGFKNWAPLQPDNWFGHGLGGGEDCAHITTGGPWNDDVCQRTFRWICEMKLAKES
Protocol: A sugar conjugate microarray containing 98 sugar conjugates (Table 3) was prepared according to a known method using a non-contact microarray printing robot (MicroSys 4000; Genomic Solutions).

| Molecule | Signal value, human IgG1 (human IgG1) | Signal value, Target [1] | Signal value, Clec10a-Fc (Clec10a-Fc) | Signal value, Clec10a-Fc with EDTA (Clec10a-Fc) | Binding of Clec10a-Fc in glycan microarray (Clec10a-Fc; Clec10a-Fc 10 μg/mL) | Binding to lectins in lectin microarray ([1]; Cy3-labeled sample) |
| --- | --- | --- | --- | --- | --- | --- |
| PHAL | 0 | 0 | 0 | 0 |  |  |
| rGal7 | 0 | 0 | 0 | 0 |  |  |
| CC(=O)N[C@@H]1[C@@H](O)[C@H](O[C@@H]2O[C@H](CO)[C@H](O)[C@H](O[C@H]3O[C@H](CO)[C@H](O)[C@H](O)[C@H]3O)[C@H]2O[C@@H]2O[C@@H](C)[C@@H](O)[C@@H](O)[C@@H]2O)[C@@H](CO)O[C@H]1O [B] | 0 |  | 0 | 0 |  |  |
| CC(=O)N[C@@H]1[C@@H](O)[C@H](O[C@@H]2O[C@H](CO)[C@H](O)[C@H](O)[C@H]2O[C@@H]2O[C@@H](C)[C@@H](O)[C@@H](O)[C@@H]2O)[C@@H](CO)O[C@H]1O [H type2] | 0 |  | 0 | 0 |  |  |
| CC(=O)N[C@@H]1[C@@H](O)[C@H](O[C@@H]2O[C@H](CO)[C@H](O)[C@H](O[C@]3(C(=O)O)C[C@H](O)[C@@H](NC(C)=O)[C@H]([C@H](O)[C@H](O)CO)O3)[C@H]2O)[C@@H](CO)O[C@H]1O [[3′S]LN] | 0 |  | 0 | 0 |  |  |
| αGalNAc [Tn antigen] | 0 |  | 682 | 0 | binds |  |
| CC(=O)N[C@@H]1[C@@H](O[C@@H]2O[C@H](CO)[C@H](O)[C@H](O)[C@H]2NC(C)=O)[C@@H](O)[C@@H](CO)O[C@H]1O [di-GalNAcβ] | 0 |  | 65 | 0 |  |  |
| CC(=O)N[C@@H]1[C@@H](O)[C@H](O[C@@H]2O[C@H](CO)[C@H](O)[C@H](O)[C@H]2NC(C)=O)[C@@H](CO)O[C@H]1O [LDN] | 0 |  | 0 | 0 |  |  |
| CC(=O)N[C@@H]1[C@@H](O)[C@H](O[C@@H]2O[C@H](CO)[C@H](O)[C@H](O)[C@H]2O)[C@@H](COS(=O)(=O)O)O[C@H]1O [[6S]LN] | 0 |  | 0 | 0 |  |  |
| O=S(=O)(O)O[C@@H]1[C@@H](O)[C@H](O)O[C@H](CO)[C@@H]1O [[3S] βGal] | 0 |  | 3 | 0 |  |  |
| OC[C@H]1O[C@H](O[C@@H]2[C@@H](O)[C@H](O)O[C@H](CO)[C@@H]2O)[C@H](O)[C@@H](O)[C@H]1O [Galα1-3Gal] | 0 |  | 144 | 0 |  |  |
| CC(=O)N[C@@H]1[C@@H](O[C@@H]2O[C@H](CO)[C@H](O)[C@H](O)[C@H]2O)[C@H](O)[C@@H](CO)O[C@H]1O [Lec] | 0 |  | 2414 | 0 |  |  |
| CC(=O)N[C@@H]1[C@@H](O[C@@H]2O[C@@H](C)[C@@H](O)[C@@H](O)[C@@H]2O)[C@H](O)[C@@H](CO)O[C@H]1O [Fucα3GlcNAc] | 0 |  | 0 | 0 |  |  |
| rMalectin | 0 | 0 | 0 | 0 |  |  |
| CC(=O)N[C@H]1[C@H]([C@H](O)[C@H](O)CO)O[C@@](OC[C@H]2O[C@@H](O[C@H]3[C@H](O)[C@@H](O)[C@H](O)O[C@@H]3CO)[C@H](O)[C@@H](O)[C@H]2O)(C(=O)O)C[C@@H]1O [6′SL] | 0 |  | 1 | 0 |  |  |
| CC(=O)N[C@H]1[C@H]([C@H](O)[C@H](O)CO)O[C@@](O[C@H](CO)[C@@H](O)[C@@H]2O[C@@](O[C@H](CO)[C@@H](O)[C@@H]3O[C@@](O)(C(=O)O)C[C@H](O)[C@H]3NC(C)=O)(C(=O)O)C[C@H](O)[C@H]2NC(C)=O)(C(=O)O)C[C@@H]1O [Sia3] | 0 |  | 19 | 3 |  |  |
| CC(=O)N[C@@H]1[C@@H](O[C@@H]2O[C@H](CO)[C@H](O)[C@H](OS(=O)(=O)O)[C@H]2O)[C@H](O[C@@H]2O[C@@H](C)[C@@H](O)[C@@H](O)[C@@H]2O)[C@@H](CO)O[C@H]1O [[3S]Lea] | 0 |  | 0 | 0 |  |  |
| CC(=O)N[C@H]1[C@H]([C@H](O)[C@H](O)CO)O[C@@](O[C@H]2[C@@H](O)[C@@H](CO)O[C@@H](O[C@H]3[C@H](O)[C@@H](O)[C@H](O)O[C@@H]3CO)[C@@H]2O)(C(=O)O)C[C@@H]1O [3′SL] | 0 |  | 5 | 0 |  |  |
| CC(=O)N[C@@H]1[C@@H](O[C@@H]2O[C@H](CO)[C@H](O)[C@H](O[C@]3(C(=O)O)C[C@H](O)[C@@H](NC(C)=O)[C@H]([C@H](O)[C@H](O)CO)O3)[C@H]2O)[C@H](O[C@@H]2O[C@@H](C)[C@@H](O)[C@@H](O)[C@@H]2O)[C@@H](CO)O[C@H]1O [sLea] | 0 |  | 0 | 0 |  |  |
| Clec10a |  |  |  |  |  | most strongly bound to the lectins of Maclura pomifera (MPA) |
| B1 | 0 | 0 | 0 | 0 |  |  |
| B2 |  | 10699 |  |  |  |  |
| B3 |  | 7508 |  |  |  |  |
